Experimental data taken from patent US20250134905A1, “USE OF SMALL-MOLECULE COMPOUND HOMOHARRINGTONINE IN MANUFACTURING DRUG FOR TREATING ACQUIRED IMMUNE DEFICIENCY SYNDROME” (Hangzhou City University, priority 2022, published 2025).

Tested on: HIV-1
Test: microbe, parasite or virus in culture
Conditions: Human immunodeficiency virus 1, HEK293, read-out: EC50 in inhibiting the production of HIV-1

SMILES: COC(=O)C[C@](O)(CCCC(C)(C)O)C(=O)O[C@@H]1C(OC)=C[C@]23CCCN2CCc2cc4c(cc2[C@H]13)OCO4 [homoharringtonine]
- EC50: 8.57 nM
